The values that follow come from publication PMC5382161 (Frontiers in Microbiology, 2017).

Converted amounts (≈) assume the structure as drawn. Read-outs that look alike come from different tables or passages of the source.

In assay [1] the test system is Mycobacterium smegmatis mc^2 155. Briefly: microbe, parasite or virus in culture. The assay is classed as cell-based.
For the next assay, the system named is M. smegmatis mc^2 155. Briefly: Bacterial cell length by bright field microscopy. It is filed as cell-based, Mycobacterium smegmatis.
A further assay has as its target T1, MtbFtsZ (Mycobacterium tuberculosis, UniProt P9WN95).
T1 construct: inferred from pET15 vector and Ni-NTA purification; made in house; host or cells: E. coli BL21 (DE3) Rosetta
T1 sequence (P9WN95 1-379): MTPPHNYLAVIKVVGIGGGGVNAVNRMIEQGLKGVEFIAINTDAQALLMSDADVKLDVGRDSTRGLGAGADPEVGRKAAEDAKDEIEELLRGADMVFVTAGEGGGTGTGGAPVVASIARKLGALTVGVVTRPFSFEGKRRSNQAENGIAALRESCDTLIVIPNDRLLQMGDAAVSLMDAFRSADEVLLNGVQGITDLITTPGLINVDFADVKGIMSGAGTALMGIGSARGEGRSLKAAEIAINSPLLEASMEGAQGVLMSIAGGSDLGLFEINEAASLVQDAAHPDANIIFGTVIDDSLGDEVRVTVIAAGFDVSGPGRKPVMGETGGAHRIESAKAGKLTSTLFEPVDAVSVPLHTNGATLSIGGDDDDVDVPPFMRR
It is filed as biochemical.

Assay [2] deals with Mycobacterium tuberculosis H37Rv. On the set-up: method as in Rezayan et al., 2012; Upadhyay et al., 2012. The following applies: ref Rezayan et al., 2012, Upadhyay et al.; cited from earlier work.
In assay [3] the test system is FtsZ localization in M. smegmatis mc^2 155. In words: FtsZ localization by immunofluorescence microscopy. Particulars: late logarithmic phase cells grown with compound for 4 h. The assay is classed as cell-based, Mycobacterium smegmatis. How it is done:
The effect of coumarins on the Z-ring formation of M. smegmatis was determined with immunofluoresence microscopy using anti-FtsZ antibodies (Dziedzic et al., [2010]). Late logarithmic phase cells were grown in the presence and absence of coumarins for 4 h. The cells were fixed with formaldehyde washed with phosphate buffer, and immuno-stained with polyclonal anti-FtsZ rabbit antibody (GeneTeX, USA) overnight at 4°C. Alexa fluor (488) goat anti-rabbit secondary antibody (Invitrogen, USA) was used for visualizing Z-rings. The nuclear material was visualized by using an anti-mountant containing DAPI. The cells were visualized in 63 X objective using a Carl-Zeiss fluorescence Microscope (Axio Imager 2 for Life Science Research, Germany). The images were visualized and processed using ZEN image processing software.

For assay [4], the target named is T2, MtbFtsZ wild type (Mycobacterium tuberculosis, UniProt P9WN95).
T2 construct: inferred from pET15 vector and Ni-NTA purification; made in house; host or cells: E. coli BL21 (DE3) Rosetta
T2 sequence (P9WN95 1-379): T1 sequence (P9WN95 1-379)
The assay is classed as biochemical.

Assay [5] concerns the target T2, MtbFtsZ wild type. The assay is classed as biochemical. This is another data set of the same source.
For another assay, the system named is bacteria. Set-up: method as in Jaiswal et al., 2007; Bhattacharya et al., 2013. The following applies: ref Jaiswal et al., 2007; Bhattacharya et al., 2013; cited from earlier work.
Where [6] appears, read: M. smegmatis mc^2 155, MABA, 37°C, 48 h.
Where [7] appears, read: Mycolicibacterium smegmatis, MC^2155, 48 h, M. smegmatis mc^2 155, MABA, 37°C, 48 h, read-out: MIC.
Setting [8] is: Mycolicibacterium smegmatis, MC^2155, 48 h.

Consider `O=c1oc2c(O)c(O)cc3c(=O)oc4c(O)c(O)cc1c4c23` [Ellagic acid], for which the MIC in assay [1] (setting [6]) is 50 ± 2.4 µM (≈ 15.1 µg/mL); in assay [1] (M. smegmatis mc^2 155, MABA, 37°C, 48 h, listed as ellagic acid, read-out: MIC) it was 50 µM (≈ 15.1 µg/mL); in assay [1] (setting [7]) it was 25 µM (≈ 7.55 µg/mL).

The compound `O=c1ccc2cc(O)c(O)cc2o1` [Esculetin] displayed an MIC in assay [1] (setting [8]) of 48.2 ± 5.7 µM (≈ 8.59 µg/mL). In the assay with M. smegmatis mc^2 155, the “increase of bacterial length” value is 4 fold and the maximum bacterial length is reported as 17.85 ± 4.5 μm. On MtbFtsZ, the “protofilament formation (TEM)” value was “did not allow the formation of network for a protofilament”.

In the case of `O=c1ccc2ccc(O)cc2o1` [Umbelliferone], the figures for the MIC in assay [1] (setting [8]) and in assay [2] were 46.2 ± 3.2 µM (≈ 7.49 µg/mL) and 58.3 µg/mL (≈ 360 µM), respectively.

As for `Cc1cc(=O)oc2cc(N(C)C)ccc12` [7-Dimethyl-4-methylcoumarin], the MIC was found to be 36.8 ± 7.1 µM (≈ 7.48 µg/mL) in assay [1] (setting [6]); 36.8 µM (≈ 7.48 µg/mL) in assay [1] (M. smegmatis mc^2 155, MABA, 37°C, 48 h, listed as 7-Dimethyl-4-methyl coumarin, read-out: MIC); 38.7 µM (≈ 7.87 µg/mL) in assay [1] (setting [7]). Moreover, in the assay with M. smegmatis mc^2 155 (cells treated with 50 μM, versus untreated cells), the “increase of bacterial length” value was 4 fold. This compound also displayed a maximum bacterial length with M. smegmatis mc^2 155 (cells treated with 50 μM, untreated 4.48 ± 1.25 μm) of 15.2 ± 3.5 μm. Also, the “FtsZ localization (immunofluorescence)” value in assay [3] is reported as “localization of MtbFtsZ was disrupted”. On MtbFtsZ, the “protofilament formation (TEM)” value is “did not allow the formation of network for a protofilament”.

On to `O=c1ccc2ccccc2o1` [Coumarin], for which the MIC in assay [1] (setting [7]) was found to be 214 ± 8.7 µM (≈ 31.2 µg/mL).

With `Cc1cc(=O)oc2cc(O)ccc12` [4-Methylumbelliferone], the MIC in assay [1] (setting [7]) amounted to 42.5 ± 2.4 µM (≈ 7.49 µg/mL).

On to `O=c1ccc2ccc(O)c(O)c2o1` [Daphnetin], for which the MIC in assay [1] (setting [8]) was 48.2 ± 6.3 µM (≈ 8.59 µg/mL).

Turning to `O=c1cc(O)c2ccccc2o1` [4-Hydroxycoumarin], the MIC in assay [1] (setting [7]) came out at 150 ± 7.4 µM (≈ 24.4 µg/mL).

Take `COc1cc2ccc(=O)oc2cc1O` [scopoletin, reference compound]: the MIC in assay [2] is 42 µg/mL (≈ 219 µM).

Turning to `COc1ccc2cc3[n+](cc2c1OC)CCc1cc2c(cc1-3)OCO2` [Berberine], the “inhibition of the GTPase activity of the protein” value on MtbFtsZ wild type [4] is reported as 75% ± 2.5. Also, the “inhibition of the polymerization activity of the protein” value at MtbFtsZ wild type [5] is 82% ± 1.4.

As to `CC(C)c1c(O)ccc2c1CC[C@H]1C(C)(C)CCC[C@]21C` [Totarol], the “inhibition of the GTPase activity of the protein” value against MtbFtsZ wild type [4] is 68% ± 3.1. The “inhibition of the polymerization activity of the protein” value at MtbFtsZ wild type [5] is recorded as 74% ± 2. The “increase of the length of bacteria” value in the assay on bacteria is 5 fold.

As for `CO[C@H]1/C=C/O[C@@]2(C)Oc3c(C)c(O)c4c(O)c(c(/C=N/N5CCN(C)CC5)c(O)c4c3C2=O)NC(=O)/C(C)=C\C=C\[C@H](C)[C@H](O)[C@@H](C)[C@@H](O)[C@@H](C)[C@H](OC(C)=O)[C@@H]1C` [Rifampicin, reference compound], the MIC in assay [1] (setting [7]) came out at 3.9 µM (≈ 3.21 µg/mL).

On to `Cc1ccc2oc(=O)ccc2c1` [6-Methylcoumarin], for which, in assay [1] (setting [7]), the MIC was determined as 46.8 ± 4.3 µM (≈ 7.5 µg/mL).

For `CC1=CC(=O)c2c(O)cccc2C1=O` [Plumbagin], the “increase of the length of bacteria” value in the assay on bacteria is recorded as 7 fold.

`CCN(CC)c1ccc2c(C)cc(=O)oc2c1` [7-Diethylamino-4-methylcoumarin]: in assay [1] (setting [8]), the MIC was determined as 70.2 ± 6.2 µM (≈ 16.2 µg/mL).

Consider `[H]/N=C(/N)N[C@H]1[C@H](O)[C@@H](O)[C@H](O[C@@H]2O[C@@H](C)[C@](O)(C=O)[C@H]2O[C@@H]2O[C@@H](CO)[C@H](O)[C@@H](O)[C@@H]2NC)[C@@H](N/C(N)=N\[H])[C@@H]1O` [streptomycin, reference compound], for which, in assay [1] (setting [7]), the MIC worked out at 11.2 µM (≈ 6.5 µg/mL).
